Test results published in US11045435B2, “Methods for treating ocular diseases” (NATUREWISE BIOTECH & MEDICALS CORPORATION, priority 2016, dated 2021).

Experiments:
[1] = test system: experimentally-induced ocular inflammation; test: Vascular permeability in experimentally-induced ocular inflammation; type: in vivo; details: earlier experiments of the applicant's laboratory
[2] = test system: IL-1-induced uveitis; test: IL-1-induced uveitis in rat eyes; type: in vivo; details: earlier experiments of the applicant's laboratory

Compound: COc1ccc2ccc(=O)oc2c1CC=C(C)C [Osthole]
- vascular permeability [1]: showed efficacy to reduce vascular permeability
- IL-1-induced uveitis [2]: inhibit IL-1-induced uveitis
